In the NIST ThermoML archive (doi:10.1021/je060441j):

Experiment: xn = mol fraction of the nth substance listed
Details: 101 kPa, Liquid

ClC(Cl)Cl [trichloromethane] + CO
mass density [kg/m3]
Details	288.15 K	293.15 K	298.15 K	303.15 K	308.15 K	313.15 K
x2 = 0	1498.08	1488.64	1479.15	1469.61	1460.03	1450.41
x2 = 0.0298	1487.35	1477.93	1468.46	1458.95	1449.38	1439.8
x2 = 0.0492	1480.27	1470.88	1461.44	1451.95	1442.4	1432.84
x2 = 0.0724	1471.76	1462.41	1453.01	1443.55	1434.04	1424.49
x2 = 0.0942	1463.44	1454.14	1444.79	1435.38	1425.89	1416.4
x2 = 0.1282	1450.19	1440.98	1431.7	1422.37	1412.96	1403.52
x2 = 0.1586	1437.96	1428.83	1419.63	1410.37	1401.04	1391.68
x2 = 0.2444	1401.12	1392.24	1383.3	1374.3	1365.22	1356.1
x2 = 0.2956	1377.44	1368.73	1359.97	1351.14	1342.24	1333.29
x2 = 0.3383	1356.51	1347.95	1339.33	1330.66	1321.9	1313.09
x2 = 0.398	1325.26	1316.93	1308.55	1300.11	1291.59	1283.02
x2 = 0.4393	1302.23	1294.08	1285.87	1277.6	1269.26	1260.88
x2 = 0.4983	1267.1	1259.22	1251.28	1243.28	1235.22	1227.13
x2 = 0.5505	1233.39	1225.77	1218.09	1210.35	1202.55	1194.71
x2 = 0.6022	1197.32	1190.01	1182.62	1175.17	1167.65	1160.08
x2 = 0.6352	1172.94	1165.78	1158.57	1151.3	1143.98	1136.62
x2 = 0.6999	1121.29	1114.52	1107.71	1100.84	1093.93	1086.96
x2 = 0.75	1077.55	1071.1	1064.61	1058.07	1051.48	1044.85
x2 = 0.7996	1030.62	1024.5	1018.34	1012.15	1005.91	999.622
x2 = 0.8193	1011.24	1005.11	998.988	992.86	986.761	980.633
x2 = 0.8534	975.44	969.692	963.915	958.1	952.24	946.342
x2 = 0.91	911.539	906.188	900.813	895.41	889.975	884.513
x2 = 0.93	887.399	882.191	876.963	871.71	866.422	861.11
x2 = 0.9542	857.083	852.051	847	841.927	836.829	831.705
